Patent US8642801B2 (BHI Limited Partnership, priority 2003, dated 2014)

Molecular target: T1, Aβ40 and Aβ42 peptides in plasma and brain of TgCRND8 mice (Homo sapiens, UniProt P05067)
T1 construct: ELISA using Human Aβ40 and Aβ42 Fluorometric ELISA kits from Biosource; from tissue; host or cells: plasma and brain homogenate of TgCRND8 transgenic mice (hAPP transgene)
Test: Short term treatment in adult transgenic CRND8 mice overexpressing βAPP: Aβ levels in plasma and brain by ELISA
Format: in vivo, Mouse
Details: TgCRND8 mice
From the text: Transgenic mice, […]8, expressing the human amyloid precursor protein (hAPP) develop a pathology resembling Alzheimer's disease. In particular, high levels of Aβ40 and Aβ 42 have been documented in the plasma and the brain of these animals at 8-9 weeks of age, followed by early accumulation of amyloid plaques similar to the senile plaques observed in AD patients. These animals also display progressive cognitive deficits that parallel the appearance of degenerative changes. See, […], et al., J. Biol. Chem. 276, 21562-70 (2001). The short term therapeutic effect of 19 compounds of the invention was studied. […] The following abbreviations are used to designate these animals from the 3rd and 4th generation backcross in the present protocol: TgCRND8-2.B6C3F1(N3); TgCRND8-2.B6C3F1(N4). Baseline animals (Group 1) consisted of naive TgCRND8-2. B6C3F1(N3) at 11±1 weeks of age. These mice were used to determine the Aβ levels in the plasma and brain of naive transgenic animals at the initiation of treatment. […] At the end of the treatment periods, plasma and perfused brains were collected for quantification of Aβ levels. […] Plasma samples were immediately frozen and stored at -80° C. pending analysis. The brains were removed, frozen, and stored at -80° C. awaiting analysis. […] Samples were spun at 15000 g for 20 minutes and the supernatants were transferred to fresh tubes. […] The tubes were vortexed for 30 seconds and frozen at -80° C. […] Samples were thawed at room temperature, sonicated at 80° C. for 15 minutes and frozen again. This cycle was repeated 3 times to ensure homogeneity and samples were returned to -80° C. pending analysis. Aβ levels were evaluated in plasma and brain samples by ELISA using Human Aβ40 and Aβ42 Fluorometric ELISA kits from Biosource (Cat. […] In short, samples were thawed at room temperature, sonicated for 5 minutes at 80° C. (sonication for brain homogenates; no sonication for plasma samples) and kept on ice. Aβ peptides were captured using 100 μl of the diluted samples to the plate and incubated without shaking at 4° C. overnight. The samples were aspirated and the wells were rinsed 4 times with wash buffer obtained from the Biosource ELISA kit. The anti-Aβ40 or anti-Aβ42 rabbit polyclonal antiserum (specific for the Aβ40 or Aβ42 peptide) was added (100 μl) and the plate was incubated at room temperature for 2 hours with shaking. The wells were aspirated and washed 4 times before adding 100 μl of the alkaline phosphatase labeled anti-rabbit antibody and incubating at room temperature for 2 hours with shaking. The plates were then rinsed 5 times and the fluorescent substrate (100 μl) was added to the plate. The plate was incubated for 35 minutes at room temperature and the plate was read using a titer plate reader at an excitation wavelength of 460 nm and emission at 560 nm Compounds were scored based on their ability to modulate levels of Aβ peptides in the plasma and the cerebral soluble/insoluble levels in the brain. Levels of Aβ observed in the plasma and brain of treated animals were normalized using values from vehicle-treated (water) or methylcellulose-treated control groups and ranked according to the strength of the pharmacological effect. Increases in the levels of Aβ peptides are indicated using “+” symbols, while decreases in the levels of Aβ peptides are indicated using “-” symbols. The strongest effects are recorded as “+++” or “- - -” while the weakest are shown as “+” or “-”.

[1] = Brain Homogenate Methylcellulose Group, Day 14, 250 mg/kg daily oral
[2] = Brain Homogenate Methylcellulose Group, Day 28, 250 mg/kg daily oral
[3] = Plasma Methylcellulose Group, Day 28, 250 mg/kg daily oral in 1% methylcellulose, normalized to methylcellulose control
[4] = Brain Homogenate Vehicle Group, Day 14, 250 mg/kg daily
[5] = Brain Homogenate Vehicle Group, Day 28, 250 mg/kg daily
[6] = Plasma Vehicle Group, Day 14, 250 mg/kg daily subcutaneous, normalized to water vehicle control

`O=S(=O)(O)CCCNC1C2CC3CC(C2)CC1C3` (stereo not drawn) [BZ, 3-(2-adamantyl)amino-1-propanesulfonic acid] was tested, and the “Brain homogenate Aβ40 Change Insoluble” value [1] was “−−− (decreases of 39% or more are scored as “− − −”)”, the “Brain homogenate Aβ42 Change Insoluble” value [1] was “−− (decreases of 20 to 38% are scored as “− −”)” and the “Brain homogenate Aβ40 Change Insoluble” value [2] was “−− (decreases of 20 to 38% are scored as “− −”)”. For the same molecule, the “Brain homogenate Aβ40 Change Soluble” value [2] was “−− (decreases of 20 to 38% are scored as “− −”)”, the “Brain homogenate Aβ42 Change Insoluble” value [2] was “−− (decreases of 20 to 38% are scored as “− −”)” and the “Plasma Aβ40 Change” value (Plasma Methylcellulose Group, Day 14, 250 mg/kg daily oral in 1% methylcellulose, normalized to methylcellulose control) was “+ (increases in the levels of Aβ (relative to untreated control) of 20 to 39% are scored as “+”)”. For the same molecule, the “Plasma Aβ40 Change” value [3] was “++ (increases of 40 to 69% are scored as “++”)” and the “Plasma Aβ42 Change” value [3] was “++ (increases of 40 to 69% are scored as “++”)”.

With `CC(C)(C)NCCCS(=O)(=O)O` [BX, 3-(t-butyl)amino-1-propanesulfonic acid] the “Brain homogenate Aβ40 Change Insoluble” value [4] was “−−− (decreases of 39% or more are scored as “− − −”)”, the “Brain homogenate Aβ40 Change Soluble” value [4] was “− (Decreases in the levels of Aβ of 5 to 19% are scored as “−”)” and the “Brain homogenate Aβ42 Change Insoluble” value [4] was “−−− (decreases of 39% or more are scored as “− − −”)”. The “Brain homogenate Aβ42 Change Soluble” value [4] was “−− (decreases of 20 to 38% are scored as “− −”)”, the “Brain homogenate Aβ40 Change Insoluble” value [5] was “−−− (decreases of 39% or more are scored as “− − −”)” and the “Brain homogenate Aβ40 Change Soluble” value [5] was “−−− (decreases of 39% or more are scored as “− − −”)”. For the same molecule, the “Brain homogenate Aβ42 Change Insoluble” value [5] was “− (Decreases in the levels of Aβ of 5 to 19% are scored as “−”)”, the “Brain homogenate Aβ42 Change Soluble” value [5] was “−− (decreases of 20 to 38% are scored as “− −”)” and the “Plasma Aβ40 Change” value [6] was “+++ (increases of 70% or higher are scored as “+ + +”)”. The “Plasma Aβ42 Change” value [6] was “++ (increases of 40 to 69% are scored as “++”)” and the “Plasma Aβ40 Change” value (Plasma Vehicle Group, Day 28, 250 mg/kg daily subcutaneous, normalized to water vehicle control) was “+++ (increases of 70% or higher are scored as “+ + +”)”.

In the case of `O=S(=O)(O)CCCNC12CC3CC(CC(C3)C1)C2` [BW, 3-(1-adamantyl)amino-1-propanesulfonic acid], the “Brain homogenate Aβ40 Change Insoluble” value [1] is reported as “−−− (decreases of 39% or more are scored as “− − −”)”, the “Brain homogenate Aβ42 Change Insoluble” value [1] is reported as “−−− (decreases of 39% or more are scored as “− − −”)” and the “Brain homogenate Aβ42 Change Soluble” value [1] is reported as “−− (decreases of 20 to 38% are scored as “− −”)”. The “Brain homogenate Aβ40 Change Insoluble” value [2] was “− (Decreases in the levels of Aβ of 5 to 19% are scored as “−”)”, the “Brain homogenate Aβ40 Change Soluble” value [2] was “− (Decreases in the levels of Aβ of 5 to 19% are scored as “−”)” and the “Brain homogenate Aβ42 Change Insoluble” value [2] was “−− (decreases of 20 to 38% are scored as “− −”)”. The “Brain homogenate Aβ42 Change Soluble” value [2] was “− (Decreases in the levels of Aβ of 5 to 19% are scored as “−”)” and the “Plasma Aβ42 Change” value [3] was “+ (increases in the levels of Aβ (relative to untreated control) of 20 to 39% are scored as “+”)”.
